How the values were obtained:
Assay type in all cases: cell-based
TAS2R16 = target: T1, TAS2R16 (Homo sapiens, UniProt Q9NYV7); test: Fluo-4 calcium assay, cells expressing TAS2R16 (control of antagonist specificity)
T1 construct: The full length gene of human TAS2R44 was amplified by polymerase chain reaction (PCR) using gene-specific primers that span the entire coding region; RSS tag (first 45 amino acids of rat somatostatin receptor subtype 3) (N); expressed in transfected cells; host or cells: HEK293T cells expressing Gα16-gustducin44
T1 sequence (Q9NYV7 1-291): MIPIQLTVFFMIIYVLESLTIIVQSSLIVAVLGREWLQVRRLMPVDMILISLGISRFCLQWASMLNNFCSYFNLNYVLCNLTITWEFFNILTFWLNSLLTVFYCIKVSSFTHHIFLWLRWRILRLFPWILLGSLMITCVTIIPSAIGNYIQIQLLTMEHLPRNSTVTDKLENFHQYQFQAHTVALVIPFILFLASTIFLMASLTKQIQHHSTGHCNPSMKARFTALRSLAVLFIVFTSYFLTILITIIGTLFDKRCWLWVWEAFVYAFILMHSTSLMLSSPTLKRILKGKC
Description: (§1) At day 0, the HEK293T cell line expressing Gα16-gustducin44 and a TAS2R bitter taste receptor formed as described in examples 2b or 2c was seeded in antibiotic-free growth medium (standard DMEM with 10% (v/v) heat-inactivated fetal bovine serum, 2 mM L-glutamine[…]) into black wall/clear bottom 96-well plates, coated with poly(ethylenimine) (0.005% v/v) at a concentration of 15,000 cells per well and incubated for 48 hours in humidified atmosphere (37° C., 5% CO2).
(§2) At the time of the assay, the growth medium was discarded and the cells were in humidified atmosphere (37° C., 5% CO2) for 1 hour with 50 μl of loading buffer consisting of 1.5 μM Fluo-4 AM and […] probenicid (Sigma-Aldrich, St. Louis, Mo., US) in DMEM.
(§3) Afterwards, the 96-well plate was washed 5 times with 100 μl of assay buffer (130 mM NaCl, 5 mM KCl, 10 mM HEPES, 2 mM CaCl2, and 5 mM dextrose, pH 7.4) per well, using an automated plate washer (BioTek). The plate was further incubated for 30 minutes at room temperature in the dark to allow for complete de-esterification of the Fluo-4. Afterwards the plate was washed 5 times with 100 μl of assay buffer per well, and reconstituted with 100 μl of assay buffer per well.
(§4) For assay reading, the plate was placed in a Fluorometric Imaging Plate Reader (FLIPR) (FLIPR-TETRA™, Molecular Devices, Sunnyvale, Calif., US), and receptor activation was initiated by addition of 100 μl of a twofold concentrated agonist stock solution (to give the desired agonist end concentration when added to the 100 microliter assay buffer volume), which was prepared in assay buffer.
(§5) Fluorescence was continuously monitored for 20 seconds to give a signal baseline (averaged to give F0) prior to agonist addition and for 120 seconds after agonist addition. The change in signal divided by F0 gives ΔF/F0 indicated in the table, with ΔF being the maximum signal occurring within the 120 seconds minus the minimum signal (occurring within the 120 seconds after agonist addition.
(§6) All data was collected from at least two independent experiments each carried out in triplicate.
(§7) A concentration-response analysis was performed and EC50 values were calculated by nonlinear regression using the function f(x)=(a−d)/(1+(x/C)^nh)+d; with a=minimum signal, d=maximum signal, nh=hill coefficient, C=EC50, and x=agonist concentration. EC50 is the molar concentration of an agonist which produces 50% of the maximum possible effective response for that agonist.
(§8) The obtained calcium signals were corrected for the response of cells expressing only the G Protein α subunit (Gα16-gustducin44) and normalized to the fluorescence of cells prior to the stimulus using ΔF/F0 (Fmax−Fmin/F0).
All cells were HEK293T cells stably expressing Gα16-gustducin44, or expressing Gα16-gustducin44 and a TAS2R receptor (TAS2R44, TAS2R16).
The method was carried out as described in example 3 subject to the following modifications: The samples were tested with and without test compound A (test cpd A) and the signals were compared. The test compound was dissolved in dimethylsulfoxide (DMSO), and a negative control with equivalent DMSO concentration (0.02%) was performed accordingly to exclude a potential inhibitory effect of the solvent.
As a control of antagonist specificity, the response of an unrelated bitter taste receptor (TAS2R16) to its agonist phenyl-β-glucopyranosides is also detected (see results in table 8 herein below).

[1] = tested on: cells expressing only Gα16gustducin44 but no TAS2 receptor; test: Fluo-4 calcium assay, negative control cells without bitter receptor
Description: HEK293T/Gα16-gustducin 44 cells were used; they are formed as described in WO 2004/055048. The host cell line HEK-293T is commercially available from the American Tissue Culture Collection (ATCC), ATCC®# CRL-11268
as §1, §2, §3, §4, §5, §8
To confirm that the cell line formed in example 2c stably expresses the bitter taste receptor TAS2R44, a concentration-response curve for saccharin, a known agonist of TAS2R44, was generated. […] The standard deviation (+/−STD) is also indicated.
As a negative control to determine unspecific signals, each of the applied concentrations of sucralose was applied to cells expressing only Gα16gustducin44.
As a negative control, each agonist and each agonist with the antagonist/test compound (test cpd A) is applied to cells expressing only Gal 6gustducin44 but no TAS2 receptor (see results in table 7 herein below).

TAS2R44 = target: T2, TAS2R44 (Homo sapiens, UniProt P59538, L162M); test: Fluo-4 calcium assay, HEK293T cells expressing Gα16-gustducin44 and TAS2R44
T2 construct: RSS tag (first 45 amino acids of rat somatostatin receptor subtype 3, plus EcoRI site) (N); expressed in transfected cells
T2 sequence (P59538 with tags, fused parts or gaps L162M): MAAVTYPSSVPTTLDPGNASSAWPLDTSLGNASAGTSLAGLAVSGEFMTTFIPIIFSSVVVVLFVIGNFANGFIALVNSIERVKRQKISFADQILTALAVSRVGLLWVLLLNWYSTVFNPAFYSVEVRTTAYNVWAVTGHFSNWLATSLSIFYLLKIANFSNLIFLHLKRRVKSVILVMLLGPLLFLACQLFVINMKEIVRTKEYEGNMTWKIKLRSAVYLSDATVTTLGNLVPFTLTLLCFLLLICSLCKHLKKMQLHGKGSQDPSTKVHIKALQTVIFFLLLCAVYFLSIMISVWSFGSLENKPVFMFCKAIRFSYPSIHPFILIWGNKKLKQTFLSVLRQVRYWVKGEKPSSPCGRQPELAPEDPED
Description: Cell lines that stably expresses a SABR (TAS2R44, TAS2R1, TAS2R10) was generated by transfecting pcDNA3.1Zeo-SABR into HEK293T/Gα16-gustducin 44 cells (both formed as described in example 1). The host cell line HEK-293T is commercially available from the American Tissue Culture Collection (ATCC), ATCC®# CRL-11268.
The expression of TAS2R44 was evaluated by testing for the presence of a functional response to the known TAS2R44 agonist saccharin (as described in WO 2004/029087) in addition to sucralose, which was determined via automated calcium imaging on the FLIPR-TETRA™ (Molecular Devices, Sunnyvale, Calif., US) as described in example 3. One clone was selected resulting in the HEK293T/Gα16-gustducin 44/TAS2R44 cell line.
Fluo-4AM (Invitrogen, Carlsbad, Calif., US) is a fluorescent indicator of intracellular calcium dynamics (change in concentration) and allows monitoring changes in the calcium concentration, particularly an increase in response to receptor activation occurring after agonist exposure.
as §1, §2, §3, §4, §5, §6, §7
The obtained calcium signals were corrected for the response of cells expressing only the G Protein α subunit (Gα16-gustducin44) and normalized to the fluorescence of cells prior to the stimulus using ΔF/F0 (Fmax−Fmin/F0). […]

With `OC[C@H]1O[C@@H](Oc2ccccc2)[C@H](O)[C@@H](O)[C@@H]1O` [P-β-G, phenyl-β-glucopyranoside] the “P-β-G ΔF/F0” value (TAS2R16; P-β-G alone 0.0391 mM) was 0.012, the “P-β-G ΔF/F0” value (TAS2R16; P-β-G alone 0.0781 mM) was 0.213 and the “P-β-G ΔF/F0” value (TAS2R16; P-β-G alone 0.1563 mM) was 0.926. For the same compound, the “P-β-G ΔF/F0” value (TAS2R16; P-β-G alone 0.3125 mM) was 1.810, the “P-β-G ΔF/F0” value (TAS2R16; P-β-G alone 0.6250 mM) was 2.284 and the “P-β-G ΔF/F0” value (TAS2R16; P-β-G alone 1.2500 mM) was 2.361. The “P-β-G ΔF/F0” value (TAS2R16; P-β-G alone 2.5000 mM) was 2.578, the “P-β-G ΔF/F0” value (TAS2R16; P-β-G alone 5.0000 mM) was 2.693 and the “P-β-G ΔF/F0” value (TAS2R16; P-β-G alone 10.0000 mM) was 2.876. It also gave an EC50 (TAS2R16; agonist P-β-G alone, TAS2R16) of 210 ± 20 µM.
`O=C1NS(=O)(=O)c2ccccc21` [Saccharin, saccharin] was tested, and the “signal in negative control, in words” value ([1]; host cells expressing only Gα16-gustducin44) was “did not show any significant change in signal”, the “Neg. Control ΔF/F0” value ([1]; saccharin 0.0391 mM) was 0.016 and the “Neg. Control ΔF/F0” value ([1]; saccharin 0.0781 mM) was 0.014. The “Neg. Control ΔF/F0” value ([1]; saccharin 0.1563 mM) was 0.014, the “Neg. Control ΔF/F0” value ([1]; saccharin 0.3125 mM) was 0.012 and the “Neg. Control ΔF/F0” value ([1]; saccharin 0.6250 mM) was 0.014. For the same compound, the “Neg. Control ΔF/F0” value ([1]; saccharin 1.2500 mM) was 0.014, the “Neg. Control ΔF/F0” value ([1]; saccharin 2.5000 mM) was 0.013 and the “Neg. Control ΔF/F0” value ([1]; saccharin 5.0000 mM) was 0.018. For the same compound, the “Neg. Control ΔF/F0” value ([1]; saccharin 10.0000 mM) was 0.020.
With `COC(=O)[C@H](Cc1ccccc1)NC(=O)[C@@H](N)CC(=O)O` [aspartame] the “agonist activity at TAS2R44 (calcium signaling), in words” value (TAS2R44; cells stably expressing human TAS2R44) was “not to be agonists for TAS2R44”.
With `CC1CCC(CCCC(N)=O)C1(C)C` (stereo not drawn) [test cpd B, 4-(2,2,3-trimethylcyclopentyl)butanamide] the “effect on the response of TAS2R44 to sucralose, in words” value (TAS2R44; test compound at 25 μM) was “had no effect”, the “response in cells not expressing TAS2R44 (negative control), in words” value ([1]; test compound at 25 μM) was “did not elicit a response” and the “effect on the response of TAS2R16 to phenyl-β-glucopyranoside, in words” value (TAS2R16; test compound at 25 μM) was “did not effect the response”.

Source: US8187822B2, “Methods to identify modulators” (Givaudan S.A., priority 2007, dated 2012)
